The nature of data set [1]: THP1-Dual cytotoxicity (Cell Titer Glo, ATP). It counts as cell-based, human. The following applies: human, THP1-Dual cells, read-out: Thp1 cytotox CC50. Put shortly:
(§1)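 Human THP1-Dual cells were treated across an 8-point dose-response range. Cytotoxicity was measured in-plate by CellTiter-Glo luminescence, which quantifies ATP as a marker of metabolically active cells, and CC50 was taken as the 50% cytotoxic concentration.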

Data set [2] is described as follows: J774-Dual cytotoxicity. It counts as cell-based, mouse. The note with it: mouse, J774-Dual cells, read-out: J774 cytotox CC50. Put shortly:
(§2)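 Orthogonal cross-species screen in mouse J774-Dual cells using 8-point dose-response format. Cytotoxicity measured in-plate by CellTiter-Glo luminescence, giving CC50 alongside EC50 and ISRE:NFκB ratios.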

In data set [3] the test system is NF-κB-SEAP reporter in J774-Dual cells. Description: J774-Dual NF-κB-SEAP reporter assay. It counts as cell-based, mouse. The following applies: for EC50: Mus musculus, read-out: J774 NFkB EC50. On the procedure:
(§3) First, optimal assay conditions and assay quality in 384-well format were determined. As mentioned, the mouse macrophage J774 cell line (J774-Dual, InvivoGen) stably transfected with the same inducible reporters described above (e.g., IRF-Lucia luciferase and NF-κB-SEAP) was used. The responsiveness of the J774-Dual cell line was investigated in an array of assay conditions to obtain sensitive and reproducible results for the activation of the IRF and NF-κB reporters. An optimal plating density and conditions for these cells was established for these cells in a 384-well format. Assay work-flow is similar to that discussed above for the THP1-Dual assay without a need for cell differentiation. Thus, cells are seeded directly in growth medium and incubated at 37° C. in a 5% C02 incubator for 24 hours prior to the programmed treatments being added as described herein.
(§4) The primary high throughput screen used the HTS platform of human THP1 monocyte cells containing the IRF-Lucia luciferase and NFκB-SEAP (secreted embryonic alkaline phosphatase) dual reporter (THP1-Dual, Invivogen), enabling the simultaneous study of the IRF and NFκB signaling pathways respectively. As discussed, the Lucia luciferase reporter gene is under the control of an ISG54 (interferon-stimulated gene) minimal promoter in conjunction with five interferon-stimulated response elements (ISRE). The SEAP gene is driven by an IFNβ minimal promoter fused to five copies of the NFκB consensus transcriptional response element and three copies of the c-Rel binding site. Both IRF-Lucia luciferase and NFκB-SEAP reporter proteins are secreted and readily measurable in the cell culture supernatant when using QUANTI-Luc™ and QUANTI-Blue™ detection reagents, respectively. Identified “hits” were confirmed in a secondary screen with an 8-point dose response curve. Hits were further screened for activity in the mouse using the mouse J774 macrophage-like cell line containing the identical reporter constructs (J774-Dual, Invivogen).
(§5) The OTRADI Small Molecule Library of approximately 246,000 diverse compounds (see below for description) was screened using the THP1-Dual based HTS platform described above. All transfer steps in the screen are fully automated, thus reducing variability. Primary screening included a single data point or dose for each molecule. After data normalization was applied for each assay run, “hit” selection was performed on the plates that pass the quality control (QC) criterion. Hits were defined as samples having values above the activity cutoff determined based on noise level of the assay to reduce false positive rates. In the pilot study discussed above this activity value was >3σ above the ISRE mean with the added criteria of NFκB activation being lower than […] from the mean to identify IRF selective compounds. The ratio of ISRE:NFκB activity was also calculated as a selectivity index for prioritizing hit selection. Primary hits underwent secondary screening to determine the 50% effective concentration (EC50) and 50% cytotoxic concentration (CC50) of these agents using an 8-point dose-response curve in the human THP1-Dual cells. Cytotoxicity was measured in the plate using Cell Titer Glo (Promega). Identified candidate compounds were further screened (orthogonal screen) for cross species activity in the validated mouse J774-Dual assay using an 8-point dose-response format to determine EC50 and CC50 values as well as ISRE:NFκB ratios. A general process flow for the experimental design laid out above is depicted at FIG. 12.

In data set [4] the test system is IRF-Lucia luciferase reporter (ISRE) in THP1-Dual cells. Briefly: THP1-Dual IRF-Lucia luciferase reporter assay (ISRE activation). In kind it is cell-based, human. The note with it: for EC50: Homo sapiens, THP1-Dual, read-out: THP1 IRF EC50. Put shortly: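 THP1-Dual cells were differentiated with 5 ng/mL PMA for 48 h at 37° C, washed, then treated with compounds at 10 μM final for 24 h; LPS at 313 ng/mL served as control. ISRE-driven Lucia luciferase in supernatant was read by luminescence.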
(Reporter assays use an easily measured gene product as a stand-in for the process of interest.)

Data set [5] relates to THP1-Dual cells. Briefly: THP1-Dual cytotoxicity (Cell Titer Glo, ATP). In kind it is cell-based, human. The following applies: Human Reporter Cell Line; read-out: Thp1 cytotox CC50. Put shortly:
as §1
Background: ATP-based viability assays read luminescence as a measure of living cells.

Data set [6] has as its system J774-Dual cells. Briefly: J774-Dual cytotoxicity. It counts as cell-based, mouse. The note with it: Mouse Reporter Cell Line; read-out: J774 cytotox CC50. Put shortly:
as §2

Data set [7] relates to NF-κB-SEAP reporter in THP1-Dual cells. Description: THP1-Dual NF-κB-SEAP reporter counterscreen. It counts as cell-based, human. The note with it: Homo sapiens, THP1-Dual, read-out: THP1 NFkB EC50. The procedure:
THP1 Dual (InvivoGen) cell suspensions were cultured in RPMI 1640 (Hyclone, Logan, Utah) supplemented with 10% fetal bovine serum (Hyclone), 100 U/mL Normocin (Invivogen), and 50 U/mL PenStrep (Gibco, Dublin, Ireland) between a density of 7·10^5-2·10^6 cells/mL. Every other passage, media was supplemented with 5 U/mL Blasticidin and 100 U/mL Zeocin to maintain the expression constructs. White, flat-bottom 384-well plates (Greiner, Kremsmunster, Austria, 781080) were seeded with 2.5·10^4 cells/well in a total of 50 μL media containing 5 ng/mL phorbolmyristic acid (PMA) using a Matrix WellMate (Thermo Scientific) dispenser. After 48 hours of incubation at 37° C., media was removed using a BioTek ELx405 CW plate washer set to aspirate and wash each well three times with 65 μL 1×PBS. Plates were reloaded with 50 μL media without PMA and treatments added. Lipopolysaccharide in dimethylsulfoxide (DMSO) was transferred to control wells using a HP D300 microdispenser to a final concentration of 313 ng/mL. Compounds from chemical library plates were copied using a Sciclone (Caliper LifeSciences) mounted with a 384-pin transfer tool to obtain a final concentration of 10 μM. After incubation with treatments for 24 hours, 10 μL of supernatant media from each well was transferred into a white, flat-bottom 384-well plate for luminescence readout and a black-walled, clear flat-bottom 384-well plate for absorbance readout.
Specifically, to enable screening of novel chemical entities (NCEs) in a larger screening effort, a robust high-throughput cell-based assay system for primary hit identification of ISRE activators based on the above-mentioned target validation was desired. Human ISRE activity was verified using a THP-1 monocyte line containing the NF-κB-SEAP and IRF-Lucia luciferase dual reporter (THP1-Dual; Invivogen) that features two reporter genes, SEAP (secreted embryonic alkaline phosphatase) and Lucia luciferase, thereby enabling the simultaneous study of the NF-κB and IRF signalling pathways. The Lucia luciferase reporter is under the control of an ISG54 (interferon-stimulated gene) minimal promoter in conjunction with five IFN-stimulated response elements. The SEAP gene is driven by an IFN-β minimal promoter fused to five copies of the NF-κB consensus transcriptional response element and three copies of the c-Rel binding site. Both reporter proteins are readily measurable in the cell culture supernatant when using QUANTI-LUC™ and QUANTI-Blue SEAP detection reagents.
Using the experimental design and data analysis outlined above, optimized assay conditions were obtained. The responsiveness of the human THP-1 Dual cell line was evaluated in an array of assay conditions to obtain sensitive and reproducible results for the activation of IRF and NF-κB reporters. An optimal plating density and differentiation protocol for these cells was established in a 384-well format. All transfer steps are fully automated using high throughput robotic equipment. Briefly, cells are seeded in differentiation medium using a Matrix WellMate fitted with the WellMate Stacker (Thermo Scientific) and incubated at 37° C. with 5% CO2 for 48 h. Following differentiation, cells are washed using a BioTek ELx405 Select CW plate washer and growth medium added with the Matrix WellMate. Programmed control treatments are added to wells using a D300 digital dispenser fitted with T8+ dispense heads (Hewlett Packard) designed to dispense nanoliter quantities of material. Compounds from library plates are added using a pin tool fitted to a Sciclone ALH 3000 Workstation (Caliper Life Sciences) programmed with Maestro v4.4. After treatment, plates are returned to incubators for 24 hours. To measure reporter expression, supernatant is collected using the Sciclone and dispensed into 2 plates: 1) a white 384-well assay plate for Lucia luminescence measurements and 2) a clear-bottom black 384-well assay plate for SEAP absorbance measurements. […]
Background: Counterscreens check selectivity or assay interference.

In data set [8] the test system is IRF-Lucia luciferase reporter (ISRE) in J774-Dual cells. Description: J774-Dual IRF-Lucia luciferase reporter assay (ISRE activation). It counts as cell-based, mouse. The following applies: for EC50: Mus musculus, read-out: J774 IRF EC50. On the procedure:
as §3, §4, §5

[9] abbreviates: J774, Mouse Reporter Cell Line, 8-point dose response.
Setting [10] is: Human Reporter Cell Line, 8-point dose response.
Where [11] appears, read: J774, Mouse Reporter Cell Line J774.

Data on ten compounds can be found in patent US20220395500A1, “SMALL MOLECULE ACTIVATORS OF INTERFERON REGULATORY FACTOR 3 AND METHODS OF USE THEREOF” (Neuralexo, Inc., priority 2020, published 2022).

Broadly, the CC50 is the concentration giving 50% cytotoxicity. As a reminder, the EC50 is the concentration giving half of the maximal effect.

Where two headings read alike, the source gives them in different places.

As for `COc1ccc(C(=O)Nc2ccc(N3CCN(C(=O)c4cccs4)CC3)cc2)c2ccccc12` [NA-15], the CC50 in data set [1] (Human Reporter Cell Line) and in data set [2] (Mouse Reporter Cell Line) was over 25 µM in each case. The figures for the EC50 in data set [3] (setting [9]) and in data set [4] (setting [10]) were 1.63 µM and 5.89 µM, respectively.

As to `O=C(Nc1ccc(N2CCN(C(=O)c3ccccc3Cl)CC2)cc1)c1ccc(OCc2ccccc2)cc1` [NA-49], the values for the CC50 in data set [5] and in data set [6] were 27.9 µM and over 25 µM, respectively.

Regarding `O=C(Nc1ccc(N2CCN(C(=O)c3ccccc3Cl)CC2)cc1)c1ccc(OCc2ccccc2)cc1` [NA-50], the CC50 in data set [5] is 13.1 µM; in data set [2] (Mouse Reporter Cell Line), over 25 µM. For the same compound, the EC50 in data set [4] (setting [10]) was about 2.5 µM.

In the case of `O=C(Nc1ccc(N2CCN(C(=O)c3cccs3)CC2)cc1)c1ccc(OCc2ccccc2)cn1` [NA-60], the EC50 came out at 2.27 µM in data set [7] (setting [10]), 1.77 µM in data set [8] (setting [9]) and 2.23 µM in data set [4] (setting [10]). The CC50 in data set [1] (Human Reporter Cell Line) is 23 µM. In addition, the “J774 IRF % activation at peak” value in data set [8] (Mouse Reporter Cell Line) is given as 33.91%.

In the case of `CCCCOc1nc(N)c2c(n1)N(Cc1cccc(CN3CCCC3)c1)CC(=O)N2` [NA-63], the concentration for a half-maximal effect (EC50) in data set [7] (setting [10]) worked out at 2.94 µM; in data set [3] (setting [9]), 2.77 µM. The CC50 in data set [2] (Mouse Reporter Cell Line) was 73.9 µM.

As to `COc1ccc(NC(=O)c2cc(NC(=O)c3cccs3)ccc2N2CCOCC2)cc1` [NB-14], the CC50 in data set [1] (Human Reporter Cell Line THP1) and in data set [2] (Mouse Reporter Cell Line J774) was over 25 µM each time. The EC50 in data set [3] (setting [11]) stood at 11.3 µM; in data set [4] (Human Reporter Cell Line THP1), 6.9 µM.

On to `COc1ccc(C(=O)Nc2cc(-c3nc4ccccc4s3)ccc2C)cc1OC` [ND-66], for which the values for the EC50 in data set [7] (Human Reporter Cell Line THP1) and in data set [8] (setting [11]) were about 0.66 µM and about 28.6 µM, respectively. Besides, the figures for the 50% cytotoxic concentration (CC50) in data set [1] (Human Reporter Cell Line THP1) and in data set [2] (Mouse Reporter Cell Line J774) were 17.9 µM and over 25 µM, respectively. The “J774 IRF % activation at peak” value in data set [8] (Mouse Reporter Cell Line J774, at peak) is recorded as about 32.86%.

Turning to `CCCN(CCC)C(=O)C1=Cc2ccc(-c3ccc(C(=O)N4CCCC4)cc3)cc2N=C(N)C1` [ND-88], the results for the EC50 in data set [7] (Human Reporter Cell Line THP1) and in data set [3] (setting [11]) were 1.72 µM and 0.72 µM, respectively. Also, the CC50 in data set [1] (Human Reporter Cell Line THP1) and in data set [2] (Mouse Reporter Cell Line J774) was over 25 µM throughout.

For `Cc1ccc(C(=O)Nc2cc(-c3nc4cc(C(C)C)ccc4o3)ccc2C)cc1C` [ND-103], the results for the EC50 in data set [7] (Human Reporter Cell Line THP1) and in data set [3] (setting [11]) were 25 µM and 9.17 µM, respectively.

In the case of `COc1cccc2c1C(=O)c1c(O)c3c(c(O)c1C2=O)C[C@@](O)(C(C)=O)C[C@@H]3O[C@H]1C[C@H](N)[C@H](O)[C@H](C)O1` [OTR-0000353-001 (Daunorubicin), Daunorubicin, reference compound], the “Average ISRE/NFκB (Range)” value in data set [8] (mouse J774-Dual pilot screen, 3 screens) was 0.1 (0.09-0.18); in data set [4] (human THP1 pilot screen, 10 μM, 3 screens), 0.7 (0.2-1.0). For the same compound, the “Average ISRE % Activation” value was 5.4 +/− 1.6% in data set [8] (mouse J774-Dual pilot screen, percent of LPS activation signal +/− SD, 3 screens) and 4.0 +/− 1.8% in data set [4] (human THP1 pilot screen, 10 μM, 24 hours, percent of LPS activation signal +/− SD, 3 screens). In data set [8] (pilot screens), the “ISRE activation in both THP1-Dual and J774-Dual screens” value is given as “cross-species ISRE activity”. Also, the “NF-κB activation in J774 screen” value in data set [3] (J774-Dual pilot screen) was “high NF-κB activity”.
